Data: patent US4395408A, “Steroids” (Roussel Uclaf, priority 1980, dated 1983)
Structures can show the parent of a compound that is named as a salt.

Test system: mice
Assay: Acute Toxicity (lethal dose LD0)
Assay type: in vivo
Conditions: for DL0 I.P. (maximum dose which did not cause any mortality after 8 days): intraperitoneal

SMILES	DL0 I.P. (maximum dose which did not cause any mortality after 8 days) [mg/kg]	DL0 oral (maximum dose which did not cause any mortality after 8 days) [mg/kg]
C/C=C1/CC[C@H]2[C@@H]3CC[C@H]4C[C@H](N)CC[C@]4(C)[C@H]3CC[C@]12C [Example 1, (Z) 3α-amino-Δ^17(20) -5α-pregnene hydrochloride]	100	≥ 400
C[C@H](O)[C@H]1CC[C@H]2[C@@H]3CC[C@H]4C[C@@H](N)CC[C@@H]4[C@H]3CC[C@]12C [Example 5, (20S)3β-amino-19-nor-5α-pregnane-20-ol hydrochloride]	100	400
C[C@H](O)[C@@]1(O)CC[C@H]2[C@@H]3CC[C@H]4C[C@H](N)CC[C@]4(C)[C@H]3CC[C@@]21C [Example 3, (20S)3α-amino-5α-pregnane-17α,20-diol hydrochloride]	60	200
CC(=O)[C@@]1(O)CC[C@H]2[C@@H]3CC[C@H]4C[C@H](N)CC[C@]4(C)[C@H]3CC[C@@]21C [Example 6, 3α-amino-5α-pregnane-17α-ol-20-one hydrochloride]	60	≥ 400
